{"source": "patent US20240269139A1", "about": "“COMPOUNDS FOR TARGETED PROTEIN DEGRADATION OF KINASES” (DANA-FARBER CANCER INSTITUTE, INC., priority 2020, published 2024)", "key": {"[1]": {"target": "protein kinases (human kinome) (Homo sapiens, UniProt P51451)", "sequence (P51451 whole entry)": "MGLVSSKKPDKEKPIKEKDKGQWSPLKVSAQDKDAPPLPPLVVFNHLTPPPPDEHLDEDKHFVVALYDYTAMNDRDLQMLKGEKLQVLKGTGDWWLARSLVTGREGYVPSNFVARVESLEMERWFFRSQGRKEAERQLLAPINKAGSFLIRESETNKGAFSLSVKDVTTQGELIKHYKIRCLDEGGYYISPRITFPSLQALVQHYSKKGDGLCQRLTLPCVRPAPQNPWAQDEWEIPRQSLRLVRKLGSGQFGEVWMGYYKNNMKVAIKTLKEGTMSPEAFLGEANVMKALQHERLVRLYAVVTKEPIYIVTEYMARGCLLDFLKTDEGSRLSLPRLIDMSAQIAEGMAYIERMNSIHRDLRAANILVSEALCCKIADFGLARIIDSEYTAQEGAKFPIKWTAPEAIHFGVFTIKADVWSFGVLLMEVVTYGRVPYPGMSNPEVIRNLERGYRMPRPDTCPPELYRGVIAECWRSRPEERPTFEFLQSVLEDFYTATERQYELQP", "format": "cell-based", "conditions": "for logFC BLK: BLK (P51451), direction down; for logFC of BLK (P51451): down"}, "[2]": {"system": "protein kinases (human kinome)", "format": "cell-based", "conditions": "for logFC of SRC: Accession P12931-2; for logFC MAPK8: MAPK8 P45983-4"}, "[3]": {"conditions": "SRC (P12931-2) protein abundance, degrader vs DMSO, down"}, "[4]": {"conditions": "AURKB Q96GD4-5, experiment wp134"}, "[5]": {"conditions": "CDK9 (P50750-2) protein abundance, degrader vs DMSO, down"}, "[6]": {"conditions": "CLK1 P49759-3, experiment wp076"}, "[7]": {"conditions": "AURKB Q96GD4-5, experiment wp146"}, "[8]": {"conditions": "CLK1 P49759-3, experiment wp146"}, "[9]": {"conditions": "Experiment wp146, direction down"}}, "note": "Like-named read-outs stand apart in the source and are kept apart here.", "data": [{"molecule": "Cc1ccc(C(=O)Nc2ccc(CN3CCN(CCOCCOCCNC(=O)CNc4cccc5c4C(=O)N(C4CCC(=O)NC4=O)C5=O)CC3)c(C(F)(F)F)c2)cc1C#Cc1cnc2cccnn12", "note": "(centres unmarked) [TL13.150]", "values": [{"measurement": "logFC BLK", "setting": "[1]; experiment wp081", "value": "−1.435"}, {"measurement": "logFC of BLK (P51451)", "setting": "[1]; Experiment wp081", "value": "−1.435"}, {"measurement": "logFC of SRC", "setting": "[2]; experiment wp081", "value": "−0.5331"}, {"measurement": "logFC MAPK14", "setting": "[2]; MAPK14, accession Q16539-2, experiment wp081, direction of change down", "value": "−0.5025"}, {"measurement": "logFC MAPK14", "setting": "[2]; MAPK14 Q16539-2, experiment wp081", "value": "−0.5025"}, {"measurement": "logFC", "setting": "[2]; [3]", "value": "−0.5331"}]}, {"molecule": "O=C(COc1cccc2c1C(=O)N(C1CCC(=O)NC1=O)C2=O)NCCCCCCCN1CCc2cc(Nc3ncc(C4CC4)c(NCCCNC(=O)C4CCC4)n3)ccc2C1", "note": "(centres unmarked) [BSJ.04.178]", "values": [{"measurement": "logFC", "setting": "[2]; [4]", "value": "−0.5074"}, {"measurement": "logFC AURKB", "setting": "[2]; [4]", "value": "−0.5074"}, {"measurement": "logFC", "setting": "[2]; [5]", "value": "−1.43"}, {"measurement": "logFC", "setting": "[2]; MARK3 (P27448-5), experiment wp134", "value": "−0.4977"}, {"measurement": "logFC CDK9 (P50750-2)", "setting": "[2]; experiment wp134", "value": "−1.43"}, {"measurement": "logFC MARK3 (P27448-5)", "setting": "[2]; experiment wp134, direction of change down", "value": "−0.4977"}]}, {"molecule": "O=C1CCC(N2C(=O)c3cccc(NCCCCCCCCN4CCC(NC(=O)c5[nH]ncc5NC(=O)c5c(Cl)cccc5Cl)CC4)c3C2=O)C(=O)N1", "note": "(centres unmarked) [MFH.5.126.1]", "values": [{"measurement": "logFC BUB1B", "setting": "[2]; Accession O60566-3, experiment wp076, direction down", "value": "−0.7532"}, {"measurement": "logFC CSNK1D", "setting": "[2]; Accession P48730-2, experiment wp076, direction down", "value": "−0.9201"}, {"measurement": "logFC GSK3B", "setting": "[2]; Accession P49841-2, experiment wp078, direction down", "value": "−0.9629"}, {"measurement": "logFC BUB1B", "setting": "[2]; BUB1B (O60566-3), experiment wp076", "value": "−0.7532"}, {"measurement": "logFC", "setting": "[2]; [5]", "value": "−0.7008"}, {"measurement": "logFC", "setting": "[2]; [6]", "value": "−1.494"}, {"measurement": "logFC CLK1", "setting": "[2]; [6]", "value": "−1.494"}, {"measurement": "logFC", "setting": "[2]; CSNK1A1 (P48729-2), experiment wp076", "value": "−0.4586"}, {"measurement": "logFC CSNK1D", "setting": "[2]; CSNK1D P48730-2, experiment wp076", "value": "−0.9201"}, {"measurement": "logFC DAPK1 (P53355-3)", "setting": "[2]; Experiment wp076, direction of change down", "value": "−0.4488"}, {"measurement": "logFC GSK3B", "setting": "[2]; GSK3B P49841-2, experiment wp076", "value": "−0.9629"}, {"measurement": "logFC CDK9 (P50750-2)", "setting": "[2]; experiment wp076", "value": "−0.7008"}, {"measurement": "logFC of CSNK1A1 (P48729-2)", "setting": "[2]; experiment wp076", "value": "−0.4586"}, {"measurement": "logFC DAPK1", "setting": "[2]; protein DAPK1 (P53355-3), experiment wp076, down", "value": "−0.4488"}]}, {"molecule": "Nc1ncnc2c1c(-c1ccc(Oc3ccccc3)cc1)nn2[C@H]1CC[C@H](N2CCN(CCOCCNC(=O)CNc3cccc4c3C(=O)N(C3CCC(=O)NC3=O)C4=O)CC2)CC1", "note": "(some centres unmarked) [SB1.G.181]", "values": [{"measurement": "logFC of BLK", "setting": "[1]; BLK P51451, experiment wp071", "value": "−2.337"}, {"measurement": "logFC of BLK (P51451)", "setting": "[1]; Experiment wp071", "value": "−2.337"}, {"measurement": "logFC ABL1", "setting": "[2]; ABL1 (P00519-2), experiment wp071", "value": "−1.735"}, {"measurement": "logFC FYN", "setting": "[2]; Accession P06241-2, experiment wp071", "value": "−2.276"}, {"measurement": "logFC of SRC", "setting": "[2]; experiment wp071", "value": "−2.478"}, {"measurement": "logFC FYN", "setting": "[2]; FYN P06241-2, experiment wp071", "value": "−2.276"}, {"measurement": "logFC LCK", "setting": "[2]; LCK, accession P06239-3, experiment wp071, direction of change down", "value": "−1.774"}, {"measurement": "logFC", "setting": "[2]; [3]", "value": "−2.478"}, {"measurement": "logFC ABL1 (P00519-2)", "setting": "[2]; experiment wp071", "value": "−1.735"}, {"measurement": "logFC LCK (P06239-3)", "setting": "[2]; experiment wp071, direction of change down", "value": "−1.774"}]}, {"molecule": "Cc1cc(Nc2ncc(Br)c(Nc3cccc(F)c3C(N)=O)n2)ccc1S(=O)(=O)NCCOCCOCCOCCOCCNc1cccc2c1C(=O)N(C1CCC(=O)NC1=O)C2=O", "note": "(centres unmarked) [TMX.02.174]", "values": [{"measurement": "logFC", "setting": "[2]; [7]", "value": "−1.578"}, {"measurement": "logFC AURKB", "setting": "[2]; [7]", "value": "−1.578"}, {"measurement": "logFC GSK3B", "setting": "[2]; Accession P49841-2, experiment wp146, direction down", "value": "−0.6472"}, {"measurement": "logFC", "setting": "[2]; [5]", "value": "−1.666"}, {"measurement": "logFC", "setting": "[2]; [8]", "value": "−0.4606"}, {"measurement": "logFC CLK1", "setting": "[2]; [8]", "value": "−0.4606"}, {"measurement": "logFC MAPK8 (P45983-4)", "setting": "[2]; [9]", "value": "−0.7761"}, {"measurement": "logFC PRKAA1 (Q13131-2)", "setting": "[2]; [9]", "value": "−1.622"}, {"measurement": "logFC GSK3B", "setting": "[2]; GSK3B P49841-2, experiment wp146", "value": "−0.6472"}, {"measurement": "logFC MAPK8", "setting": "[2]; experiment wp146", "value": "−0.7761"}, {"measurement": "logFC RPS6KA1", "setting": "[2]; RPS6KA1 (Q15418-2), experiment wp146", "value": "−0.6638"}, {"measurement": "logFC CDK9 (P50750-2)", "setting": "[2]; experiment wp146", "value": "−1.666"}, {"measurement": "logFC CDK16 (Q00536-2)", "setting": "[2]; experiment wp146", "value": "−1.176"}, {"measurement": "logFC PRKAA1 (Q13131-2)", "setting": "[2]; experiment wp146", "value": "−1.622"}, {"measurement": "logFC RPS6KA1 (Q15418-2)", "setting": "[2]; experiment wp146", "value": "−0.6638"}, {"measurement": "logFC NEK1 (Q96PY6-3)", "setting": "[2]; experiment wp146, direction of change down", "value": "−0.3871"}, {"measurement": "logFC NEK1", "setting": "[2]; protein NEK1 (Q96PY6-3), experiment wp146, down", "value": "−0.3871"}]}, {"molecule": "Cc1ccc(NC(=O)c2cccc(C(F)(F)F)c2)cc1N1Cc2cnc(Nc3ccc(N4CCN(CCCOc5cccc6c5C(=O)N(C5CCC(=O)NC5=O)C6=O)CC4)nc3)nc2N(C)C1=O", "note": "(centres unmarked) [DB0662]", "values": [{"measurement": "logFC BLK", "setting": "[1]; experiment wp168", "value": "−1.652"}, {"measurement": "logFC of BLK (P51451)", "setting": "[1]; Experiment wp168", "value": "−1.652"}, {"measurement": "logFC FYN", "setting": "[2]; Accession P06241-2, experiment wp168", "value": "−0.5636"}, {"measurement": "logFC MAP3K20 (Q9NYL2-2)", "setting": "[2]; Experiment wp168", "value": "−1.006"}, {"measurement": "logFC MAPK8 (P45983-4)", "setting": "[2]; Experiment wp168, direction down", "value": "−0.8961"}, {"measurement": "logFC FYN", "setting": "[2]; FYN P06241-2, experiment wp168", "value": "−0.5636"}, {"measurement": "logFC MAPK8", "setting": "[2]; experiment wp168", "value": "−0.8961"}, {"measurement": "logFC MAPK14", "setting": "[2]; MAPK14, accession Q16539-2, experiment wp168, direction of change down", "value": "−1.34"}, {"measurement": "logFC MAPK14", "setting": "[2]; MAPK14 Q16539-2, experiment wp168", "value": "−1.34"}, {"measurement": "logFC", "setting": "[2]; PTK2B (Q14289-2), experiment wp168, direction down", "value": "−3.245"}, {"measurement": "logFC PTK2B", "setting": "[2]; PTK2B, accession Q14289-2, experiment wp168, direction of change down", "value": "−3.245"}, {"measurement": "kinases the bifunctional compound degrades", "setting": "[2]; as stated for the structure in the embodiments", "value": "ABL1, ABL2, BLK, BUB1, CDK11B, CDK4, CSK, EPHB6, FER. FYN, GAK, LCK, LIMK1, MAP3K1, MAP3K11, MAP3K20, MAP4K1, MAPK14, MAPK8, MAPK9, MAPKAPK2, MKNK2, PAK4, PDIK1L, PTK2B, RPS6KA1, RPS6KA3, SIK2, SRC, TNK2, UHMK1, ULK1, and YES1"}, {"measurement": "logFC MAP3K20 (Q9NYL2-2)", "setting": "[2]; experiment wp168", "value": "−1.006"}, {"measurement": "Kinase hits", "setting": "[2]; kinases significantly downregulated vs DMSO (fold change cutoff −1.25, P-value<0.01), ≤8 h, 0.1-5 μM degrader, 7 cell lines", "value": "ABL1, ABL2, BLK, BUB1, CDK11B, CDK4, CSK, EPHB6, FER, FYN, GAK, LCK, LIMK1, MAP3K1, MAP3K11, MAP3K20, MAP4K1, MAPK14, MAPK8, MAPK9, MAPKAPK2, MKNK2, PAK4, PDIK1L, PTK2B, RPS6KA1, RPS6KA3, SIK2, SRC, TNK2, UHMK1, ULK1,YES1"}, {"measurement": "Total no. kinase hits", "setting": "[2]; number of degraded kinases per library compound", "value": 33}]}]}
